Counter-ions that a name gives are not always drawn.
molecular target: T1, acyl-CoA: cholesterol acyltransferase (ACAT) (Oryctolagus cuniculus, UniProt G1SFD9); experiment: In vitro inhibition of cholesterol esterification by ACAT (cholesteryl oleate formation), rabbit intestinal microsomal fraction; assay type: biochemical; conditions: endogenous cholesterol of rabbit intestinal microsomal fraction and exogenous 14C-oleoyl-CoA; read-out: IC50 (concentration of test compound required to inhibit cholesteryl oleate formation to 50% of control)
T1 construct: rabbit intestinal microsomal fraction; from tissue; host or cells: rabbit intestinal microsomal fraction
T1 sequence (G1SFD9 1-524): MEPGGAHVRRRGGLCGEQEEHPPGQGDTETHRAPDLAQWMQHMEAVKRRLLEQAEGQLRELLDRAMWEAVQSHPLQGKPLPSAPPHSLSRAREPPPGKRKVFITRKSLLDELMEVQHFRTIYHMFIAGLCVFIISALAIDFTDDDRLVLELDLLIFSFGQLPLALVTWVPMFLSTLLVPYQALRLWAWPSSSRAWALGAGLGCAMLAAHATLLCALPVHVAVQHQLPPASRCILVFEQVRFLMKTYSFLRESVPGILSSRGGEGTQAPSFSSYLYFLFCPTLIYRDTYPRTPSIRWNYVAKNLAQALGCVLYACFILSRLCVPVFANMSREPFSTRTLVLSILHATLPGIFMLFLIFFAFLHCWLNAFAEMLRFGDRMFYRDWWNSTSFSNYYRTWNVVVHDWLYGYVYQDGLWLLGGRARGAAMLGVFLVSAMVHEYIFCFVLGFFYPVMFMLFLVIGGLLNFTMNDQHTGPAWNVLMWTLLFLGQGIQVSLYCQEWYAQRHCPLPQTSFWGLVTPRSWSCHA
Method: The compounds of the present invention were tested for their ability to inhibit the esterification of cholesterol by the enzyme acyl-CoA: cholesterol acyltransferase (ACAT). The data in the table below is expressed as IC50 values, i.e. the concentration of test compound required to inhibit cholesteryl oleate formation to 50% of control.
The in vitro test employed is more fully described in Field, F. J. and Salome, R. G., Biochemica et Biophysica Acta, 712, pp. 557-570 (1982). The assay evaluates the ability of a test compound to inhibit the esterification of cholesterol using endogenous cholesterol of a rabbit intestinal microsomal fraction and exogenous ^14 C-oleoyl-CoA as reactants.

In order of rising IC50:
1. Cc1ccc(C)c(OCCCC(C)(C)C(=O)Nc2cc(CC3=NC(C)(C)CO3)ccc2C)c1 [Example 3b, N-[5-[(4,5-Dihydro-4,4-dimethyl-2-oxazolyl)methyl]-2-methylphenyl]-5-(2,5-dimethylphenoxy)-2,2-dimethylpentanamide]  0.8 µM
2. Cc1ccc(C)c(OCCCC(C)(C)C(=O)Nc2ccc(C)c(CC3=NC(C)(C)CO3)c2)c1 [Example 1d, N-[3-[(4,5-Dihydro-4,4-dimethyl-2-oxazolyl)methyl]-4-methylphenyl]-5-(2,5-dimethylphenoxy)-2,2-dimethylpentanamide]  1 µM
3. COc1ccc(NC(=O)C(C)(C)CCCOc2cc(C)ccc2C)cc1CCC1=NC(C)(C)CO1 [Example 2, N-[3-[2-(4,5-Dihydro-4,4-dimethyl-2-oxazolyl)ethyl]-4-methoxyphenyl]-5-(2,5-dimethylphenoxy)-2,2-dimethylpentanamide]  3.7 µM
4. Cc1ccc(C)c(OCCCC(C)(C)C(=O)Nc2cc(C3=NC(C)(C)CO3)ccc2C)c1 [Example 1b, N-[5-(4,5-Dihydro-4,4-dimethyl-2-oxazolyl)-2-methylphenyl]-5-(2,5-dimethylphenoxy)-2,2-dimethylpentanamide]  5.5 µM
5. COc1ccc(CC2=NC(C)(C)CO2)cc1NC(=O)C(C)(C)CCCOc1cc(C)ccc1C [Example 3, N-[5-[(4,5-Dihydro-4,4-dimethyl-2-oxazolyl)methyl]-2-methoxyphenyl]-5-(2,5-dimethylphenoxy)-2,2-dimethylpentanamide]  5.5 µM
6. COc1ccc(/C=C/C2=NC(C)(C)CO2)cc1NC(=O)C(C)(C)CCCOc1cc(C)ccc1C [Example 2b, (E)-N-[5-[2-(4,5-Dihydro-4,4-dimethyl-2-oxazolyl)ethenyl]-2-methoxyphenyl]-5-(2,5-dimethylphenoxy)-2,2-dimethylpentanamide]  8 µM
7. COc1ccc(C2=NC(C)(C)CO2)cc1NC(=O)C(C)(C)CCCOc1cc(C)ccc1C [Example 4b, N-[5-(4,5-Dihydro-4,4-dimethyl-2-oxazolyl)-2-methoxyphenyl]-5-(2,5-dimethylphenoxy)-2,2-dimethylpentanamide]  9 µM
8. COc1cc(OC)c(C2=NC(C)(C)CO2)cc1NC(=O)C(C)(C)CCCOc1cc(C)ccc1C [Example 4e, N-[5-(4,5-Dihydro-4,4-dimethyl-2-oxazolyl)-2,4-dimethoxyphenyl]-5-(2,5-dimethylphenoxy)-2,2-dimethylpentanamide]  9 µM
9. Cc1ccc(C)c(OCCCC(C)(C)C(=O)Nc2cccc(OCC3=NC(C)(C)CO3)c2)c1 [Example 3a, N-[3-[(4,5-Dihydro-4,4-dimethyl-2-oxazolyl)methoxy]phenyl]-5-(2,5-dimethylphenoxy)-2,2-dimethylpentanamide]  9.2 µM
10. Cc1ccc(C)c(OCCCC(C)(C)C(=O)Nc2cccc(C=CC3=NC(C)(C)CO3)c2)c1 [Example 2a, N-[3-[2-(4,5-Dihydro-4,4-dimethyl-2-oxazolyl)ethenyl]phenyl]-5-(2,5-dimethylphenoxy)-2,2-dimethylpentanamide]  9.4 µM
11. Cc1ccc(C)c(OCCCC(C)(C)C(=O)Nc2cccc(C3=NCCO3)c2C)c1 [Example 1c, N-[3-(4,5-Dihydro-2-oxazolyl)-2-methylphenyl]-5-(2,5-dimethylphenoxy)-2,2-dimethylpentanamide]  10 µM
12. COC(=N)c1cccc(NC(=O)C(C)(C)CCCOc2cc(C)ccc2C)c1 [Example 4g, 5-(2,5-Dimethylphenoxy)-N-[3-(iminomethoxymethyl)phenyl]-2,2-dimethylpentanamide monohydrochloride]  13 µM
13. COc1ccc(C2=NCCCO2)cc1NC(=O)C(C)(C)CCCOc1cc(C)ccc1C [Example 4f, N-[5-(5,6-Dihydro-4H-1,3-oxazin-2-yl)-2-methoxyphenyl]-5-(2,5-dimethylphenoxy)-2,2-dimethylpentanamide]  18 µM
14. COc1ccc(NC(=O)C(C)(C)CCCOc2cc(C)ccc2C)cc1C1=NC(C)(C)CO1 [Example 4d, N-[3-(4,5-Dihydro-4,4-dimethyl-2-oxazolyl)-4-methoxyphenyl]-5-(2,5-dimethylphenoxy)-2,2-dimethylpentanamide]  19 µM
15. Cc1ccc(C)c(OCCCC(C)(C)C(=O)Nc2cccc(C3=NCCCO3)c2)c1 [Example 4, N-[3-(5,6-Dihydro-4H-1,3-oxazin-2-yl)phenyl]-5-(2,5-dimethylphenoxy)-2,2-dimethylpentanamide]  20 µM
16. Cc1ccc(C)c(OCCCC(C)(C)C(=O)Nc2cccc(-c3nnc(C)o3)c2)c1 [Example 5, 5-(2,5-dimethylphenoxy)-2,2-dimethyl-N-[3-(5-methyl-1,3,4-oxadiazol-2-yl)phenyl]pentanamide]  21 µM
17. Cc1ccc(C)c(OCCCC(C)(C)C(=O)Nc2cccc(C3=NC(C)(C)CO3)c2)c1 [Example 1a, N-[3-(4,5-Dihydro-4,4-dimethyl-2-oxazolyl)phenyl]-5-(2,5-dimethylphenoxy)-2,2-dimethylpentanamide]  22 µM
18. Cc1ccc(C)c(OCCCC(C)(C)C(=O)Nc2cccc(-c3ncco3)c2)c1 [Example 4h, 5-(2,5-Dimethylphenoxy)-2,2-dimethyl-N-[3-(2-oxazolyl)phenyl]-pentanamide]  23 µM
19. Cc1ccc(C)c(OCCCC(C)(C)C(=O)Nc2cccc(C3=NC(C)(C)CO3)c2C)c1 [Example 1, N-[3-(4,5-Dihydro-4,4-dimethyl-2-oxazolyl)-2-methylphenyl]-5-(2,5-dimethylphenoxy)-2,2-dimethylpentanamide]  24 µM

— US4824843A, “Substituted amide inhibitors of cholesterol absorption” (Warner-Lambert Company, priority 1987, dated 1989)
